For series [1] the following is noted: in vivo; cited from earlier work.
The test system of series [2] is CYP450. Conditions: cited from earlier work.
For series [3] the following is noted: early Phase I evaluation; cited from earlier work.
For series [4], the system named is human xenograft models. The settings on record: dosed orally; cited from earlier work.
Series [5] concerns HER3. Nature of the series: CEER detection of activated HER3 in HCC827 cells treated with HGF. Type of series: cell-based. The settings on record: HGF stimulation, judged by increased EC50. As for the experimental part: (§1) In one particular embodiment, cells from a NSCLC cell line (e.g., HCC827 cells or other gefitinib sensitive lung adenocarcinoma cells with EGFR-activating mutations; American Type Culture Collection, Manassas, Va.) were treated with different concentrations of ligand or signaling molecule (e.g., the ligand for the cMET receptor, HGF). The levels of expression and activation of proteins associated with cancer were measured in the treated cells with high sensitivity using CEER arrays. By varying the amount of ligand exposed to the cancer cells, the expression profiles of the analyzed proteins were correlated to the amount of ligand used to stimulate the cells. Dose response curves were used to calculate EC50 values which can be used to interpret the inhibition and activation states of the analyzed proteins.
(§2) FIG. 10 illustrates the difference in protein expression in HCC827 cells following HGF stimulation. […] FIG. 10E illustrates that HGF and cMET binding interferes with HER3 activation, and HER1 and HER2 to a lesser extent (see also, FIGS. 10C and 10D).

Series [6] has as its system HER1. Put plainly: CEER detection of activated HER1 in HCC827 cells treated with HGF. Type of series: cell-based. Conditions: HGF stimulation, judged by increased EC50. As for the experimental part:
as §1, §2

For series [7], the target named is T1, cMET (Homo sapiens, UniProt P08581).
T1 construct: host or cells: HCC827
T1 sequence (P08581 25-1390): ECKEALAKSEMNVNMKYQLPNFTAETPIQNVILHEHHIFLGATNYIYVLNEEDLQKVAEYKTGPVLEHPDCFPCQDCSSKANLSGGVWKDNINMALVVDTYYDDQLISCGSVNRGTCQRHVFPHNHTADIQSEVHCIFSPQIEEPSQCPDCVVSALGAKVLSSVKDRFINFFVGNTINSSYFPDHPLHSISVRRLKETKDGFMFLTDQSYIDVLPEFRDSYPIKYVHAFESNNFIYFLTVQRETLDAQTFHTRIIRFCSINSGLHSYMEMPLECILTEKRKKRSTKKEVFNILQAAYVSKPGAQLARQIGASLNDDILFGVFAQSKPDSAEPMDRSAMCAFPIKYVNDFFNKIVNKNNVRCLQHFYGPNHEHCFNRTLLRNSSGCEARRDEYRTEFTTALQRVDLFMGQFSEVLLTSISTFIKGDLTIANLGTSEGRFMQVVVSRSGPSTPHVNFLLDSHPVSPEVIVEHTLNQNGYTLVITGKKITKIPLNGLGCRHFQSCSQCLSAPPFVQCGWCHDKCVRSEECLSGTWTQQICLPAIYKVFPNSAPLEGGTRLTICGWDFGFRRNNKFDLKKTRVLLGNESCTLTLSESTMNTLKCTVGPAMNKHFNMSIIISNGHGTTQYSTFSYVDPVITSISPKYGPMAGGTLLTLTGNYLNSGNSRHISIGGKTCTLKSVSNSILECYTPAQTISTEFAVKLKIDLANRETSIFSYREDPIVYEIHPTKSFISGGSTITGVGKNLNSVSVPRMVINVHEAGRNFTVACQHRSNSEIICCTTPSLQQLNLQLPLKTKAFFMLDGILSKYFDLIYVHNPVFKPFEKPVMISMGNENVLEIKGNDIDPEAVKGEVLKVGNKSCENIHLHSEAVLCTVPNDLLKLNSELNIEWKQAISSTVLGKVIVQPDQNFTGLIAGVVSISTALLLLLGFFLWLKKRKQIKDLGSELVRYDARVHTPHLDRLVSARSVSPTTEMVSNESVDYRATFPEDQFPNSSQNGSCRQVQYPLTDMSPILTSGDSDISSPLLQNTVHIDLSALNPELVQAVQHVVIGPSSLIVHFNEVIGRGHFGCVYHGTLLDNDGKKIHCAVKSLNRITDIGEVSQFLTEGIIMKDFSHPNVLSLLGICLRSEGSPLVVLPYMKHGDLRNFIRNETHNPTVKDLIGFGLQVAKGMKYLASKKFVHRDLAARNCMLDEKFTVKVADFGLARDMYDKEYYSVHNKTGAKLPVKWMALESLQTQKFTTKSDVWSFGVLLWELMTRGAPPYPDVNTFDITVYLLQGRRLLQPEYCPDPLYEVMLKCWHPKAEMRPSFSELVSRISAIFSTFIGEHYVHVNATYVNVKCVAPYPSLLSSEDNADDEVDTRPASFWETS
Nature of the series: CEER detection of activated cMET in HCC827 cells treated with HGF. Type of series: cell-based. The settings on record: HGF stimulation, FIG. 10B. The method, then:
as §1, §2

For series [8], the system named is HER2. Put plainly: CEER detection of activated HER2 in HCC827 cells treated with HGF. Type of series: cell-based. The settings on record: HGF stimulation, judged by increased EC50. The method, then:
as §1, §2

Take `COc1cc2c(Oc3ccc(NC(=O)C4(C(=O)Nc5ccc(F)cc5)CC4)cc3F)ccnc2cc1OCCCN1CCOCC1` [GSK 1363089/XL880]: the oral bioavailability result in series [1] was “good oral bioavailability”. In addition, the “CYP450 substrate / inhibitor / inducer status” value in series [2] is reported as “substrate, but not an inhibitor or inducer”.
On to `CN(C[C@@H]1COCCO1)S(=O)(=O)Nc1ccc2ccc3ncc(-c4cnn(C)c4)cc3c(=O)c2c1` [MK-2461], for which the tolerability entry in series [3] is on record as “well tolerated”.
Turning to `Cn1cc(-c2ccc3nnc(Sc4ccc5ncccc5c4)n3n2)cn1` [SGX523], in series [4], the antitumor activity result is on record as “potent antitumor activity” and the toxicity result is “no overt toxicity”.
As to “HGF: hepatocyte growth factor, the ligand for the cMET receptor”, the HER3 activation result in series [5] is “decreased”. For the same molecule, the HER1 activation result in series [6] is “decreased”. In addition, the cMET activation entry in series [7] was “activated cMET effectively”. Further, the HER2 activation result in series [8] was “decreased”.

The values are drawn from US20140024548A1, “DRUG SELECTION FOR MALIGNANT CANCER THERAPY USING ANTIBODY-BASED ARRAYS” (NESTEC S.A., priority 2010, published 2014).
